Several values for one entry are separate records, joined by “and”; a condition that tells them apart may be missing. Identical values can stand only once. Inconclusive results and toxic doses are left out. Rule as the data show it: active = T/C of 150% or more; inactive = T/C below 125%.
Tested on: L1210 leukemia ip in BDF1 mice, survival T/C
Assay: NCI In Vivo Anticancer Drug Screen. Data for tumor model L1210 Leukemia (intraperitoneal) in B6D2F1 (BDF1) mice
Conditions: endpoint: mean survival time, higher = longer survival
Procedure, shortened: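 Ratio derived from survival: compound-dosed mice over vehicle-dosed mice, all bearing a transplantable tumor.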

[1] = dose: 100.0 mg/kg/injection, schedule: Q04DX002 (ip), vehicle: saline with Tween-80
[2] = dose: 200.0 mg/kg/injection, schedule: Q04DX002 (ip), vehicle: saline with Tween-80
[3] = dose: 400.0 mg/kg/injection, schedule: Q04DX002 (ip), vehicle: saline with Tween-80
[4] = dose: 100.0 mg/kg/injection, schedule: Q04DX003 (ip), vehicle: saline with Tween-80
[5] = dose: 200.0 mg/kg/injection, schedule: Q04DX003 (ip), vehicle: saline with Tween-80
[6] = dose: 400.0 mg/kg/injection, schedule: Q04DX003 (ip), vehicle: saline with Tween-80
[7] = dose: 100.0 mg/kg/injection, schedule: Q01DX009 (ip), vehicle: saline with Tween-80
[8] = dose: 200.0 mg/kg/injection, schedule: Q01DX009 (ip), vehicle: saline with Tween-80
[9] = dose: 100.0 mg/kg/injection, schedule: Q01DX001 (ip), vehicle: saline
[10] = dose: 200.0 mg/kg/injection, schedule: Q01DX001 (ip), vehicle: saline
[11] = dose: 400.0 mg/kg/injection, schedule: Q01DX001 (ip), vehicle: saline

Measured: T/C

CCCCCCCCCCCCCCCCCC[P+](CCCC)(CCCC)CCCC
inactive: dose: 0.75 mg/kg/injection, schedule: Q04DX002 (ip), vehicle: saline with Tween-80 110 % of control | dose: 1.5 mg/kg/injection, schedule: Q04DX002 (ip), vehicle: saline with Tween-80 90 % of control | dose: 3.0 mg/kg/injection, schedule: Q04DX002 (ip), vehicle: saline with Tween-80 100 % of control | dose: 3.12 mg/kg/injection, schedule: Q04DX002 (ip), vehicle: saline with Tween-80 87 % of control | dose: 6.25 mg/kg/injection, schedule: Q04DX002 (ip), vehicle: saline with Tween-80 94 % of control

COc1n[nH]c(N)n1
inactive: [1] 122 % of control | [2] 98 % of control | [3] 105 % of control

CSc1nc(N)c(N=Nc2ccc(S(=O)(=O)Nc3nccc(C)n3)cc2)c(=O)[nH]1
inactive: dose: 100.0 mg/kg/injection, schedule: Q01DX001 (ip), vehicle: carboxymethylcellulose (CMC) 86 % of control | dose: 200.0 mg/kg/injection, schedule: Q01DX001 (ip), vehicle: carboxymethylcellulose (CMC) 97 % of control | dose: 400.0 mg/kg/injection, schedule: Q01DX001 (ip), vehicle: carboxymethylcellulose (CMC) 97 % of control

CNC(=O)Nc1cc(OC)ccc1OC
inactive: dose: 100.0 mg/kg/injection, schedule: Q01DX009 (ip), vehicle: Klucel (hydroxypropylcellulose) (HPC) 106 % of control | dose: 200.0 mg/kg/injection, schedule: Q01DX009 (ip), vehicle: Klucel (hydroxypropylcellulose) (HPC) 98 % of control | dose: 400.0 mg/kg/injection, schedule: Q01DX009 (ip), vehicle: Klucel (hydroxypropylcellulose) (HPC) 107 % of control

C=C(C)CC1(CC2SCCCS2)SCCCS1
inactive: dose: 25.0 mg/kg/injection, schedule: Q04DX002 (ip), vehicle: saline with Tween-80 98 % of control | dose: 50.0 mg/kg/injection, schedule: Q04DX002 (ip), vehicle: saline with Tween-80 106 % of control | [1] 88 % of control | [2] 98 % of control

NC(=O)Oc1ccc(C2CC(=O)C(C(N)=O)C(=O)C2)cc1 (centres undefined)
inactive: dose: 100.0 mg/kg/injection, schedule: Q01DX001 (ip), vehicle: other 97 % of control | [4] 108 % of control | dose: 200.0 mg/kg/injection, schedule: Q01DX001 (ip), vehicle: other 92 % of control | [5] 103 % of control | dose: 400.0 mg/kg/injection, schedule: Q01DX001 (ip), vehicle: other 94 % of control | [6] 100 % of control

O=C1C=C(NC(Cc2cnc[nH]2)C(=O)O)c2ccccc2C1=O (centres undefined)
inactive: dose: 50.0 mg/kg/injection, schedule: Q01DX009 (ip), vehicle: saline with Tween-80 97 % of control | [7] 100 % of control | [8] 93 % of control

O/C(=C/C(=S)S)c1ccco1
inactive: dose: 25.0 mg/kg/injection, schedule: Q01DX009 (ip), vehicle: water 87 % of control | dose: 50.0 mg/kg/injection, schedule: Q01DX009 (ip), vehicle: water 93 % of control | dose: 100.0 mg/kg/injection, schedule: Q01DX009 (ip), vehicle: water 88 % of control | dose: 200.0 mg/kg/injection, schedule: Q01DX009 (ip), vehicle: water 90 % of control | dose: 400.0 mg/kg/injection, schedule: Q01DX009 (ip), vehicle: water 93 % of control

C=CCc1cc(C)ccc1OC(=O)c1cc([N+](=O)[O-])cc([N+](=O)[O-])c1
inactive: [9] 102 % of control | [10] 98 % of control | [11] 98 % of control

Nc1ccc(C(=O)N/N=C/c2ccc(N(CCBr)CCBr)cc2)cc1
inactive: dose: 12.5 mg/kg/injection, schedule: Q01DX Z (ip), vehicle: carboxymethylcellulose (CMC) 124 % of control | [9] 98 % of control | [10] 108 % of control

CCCCCCCCCCC/C=N\[N+](C)(C)C
inactive: dose: 12.5 mg/kg/injection, schedule: Q01DX009 (ip), vehicle: Klucel (hydroxypropylcellulose) (HPC) 108 % of control | dose: 25.0 mg/kg/injection, schedule: Q01DX009 (ip), vehicle: Klucel (hydroxypropylcellulose) (HPC) 95 % of control

CCc1ncc(N2C3CCCC2CC(=O)C3)[nH]1
inactive: dose: 75.0 mg/kg/injection, schedule: Q01DX001 (ip), vehicle: saline 98 % of control | dose: 150.0 mg/kg/injection, schedule: Q01DX001 (ip), vehicle: saline 98 % of control

Br[SiH](Br)Br
inactive: dose: 25.6 mg/kg/injection, schedule: Q04DX002 (ip), vehicle: saline with Tween-80 93 % of control | dose: 64.0 mg/kg/injection, schedule: Q04DX002 (ip), vehicle: saline with Tween-80 93 % of control | [4] 101 % of control | dose: 160.0 mg/kg/injection, schedule: Q04DX002 (ip), vehicle: saline with Tween-80 90 % of control | [5] 92 % of control | [3] 97 % of control | [6] 92 % of control

NC(CCl)=NCCOC12CC3CC(CC(C3)C1)C2
inactive: dose: 25.0 mg/kg/injection, schedule: Q04DX002 (ip), vehicle: saline 94 % of control | dose: 50.0 mg/kg/injection, schedule: Q04DX002 (ip), vehicle: saline 112 % of control | dose: 100.0 mg/kg/injection, schedule: Q04DX002 (ip), vehicle: saline 96 % of control and 87 % of control

Nc1ccccc1C(=O)c1ccccc1
inactive: dose: 100.0 mg/kg/injection, schedule: Q01DX001 (ip), vehicle: Klucel (hydroxypropylcellulose) (HPC) 94 % of control | [7] 90 % of control | dose: 100.0 mg/kg/injection, schedule: Q04DX003 (ip), vehicle: Klucel (hydroxypropylcellulose) (HPC) 98 % of control | [4] 93 % of control | dose: 200.0 mg/kg/injection, schedule: Q01DX001 (ip), vehicle: Klucel (hydroxypropylcellulose) (HPC) 93 % of control | [8] 95 % of control | dose: 200.0 mg/kg/injection, schedule: Q04DX003 (ip), vehicle: Klucel (hydroxypropylcellulose) (HPC) 98 % of control | [5] 95 % of control | [6] 95 % of control

O=[N+]([O-])c1ccc(NC(CO)C(O)C(O)C(O)CO)c([N+](=O)[O-])c1 (centres undefined)
inactive: [9] 102 % of control | [10] 98 % of control | [11] 98 % of control

Source: PubChem BioAssay AID248 (DTP/NCI, 2004)
